Test results taken from patent publication US9133148B2, “Carbamate compounds and of making and using same” (Abide Therapeutics, Inc., priority 2012, dated 2015).

Key:
Format in all cases: biochemical
MAGL [1] = target: T1, MAGL (Mus musculus (Mouse), UniProt O35678); assay: Competitive ABPP, % inhibition at 1 uM, MAGL
Experimental: (§1) In Vitro Competitive Activity-Based Protein Profiling.
(§2) Proteomes (mouse brain membrane fraction or cell lysates) ([…], 1.0 mg/mL total protein concentration) were preincubated with varying concentrations of inhibitors at 37° C. After 30 min, FP-Rh (1.0 μL, 50 μM in DMSO) was added and the mixture was incubated for another 30 min at 37° C. Reactions were quenched with SDS loading buffer (50 μL—4×) and run on SDS-PAGE.

FAAH [2] = target: T2, FAAH (Mus musculus (Mouse), UniProt O08914); assay: Competitive ABPP, % inhibition at 1 uM, FAAH
T2 sequence (O08914 whole entry): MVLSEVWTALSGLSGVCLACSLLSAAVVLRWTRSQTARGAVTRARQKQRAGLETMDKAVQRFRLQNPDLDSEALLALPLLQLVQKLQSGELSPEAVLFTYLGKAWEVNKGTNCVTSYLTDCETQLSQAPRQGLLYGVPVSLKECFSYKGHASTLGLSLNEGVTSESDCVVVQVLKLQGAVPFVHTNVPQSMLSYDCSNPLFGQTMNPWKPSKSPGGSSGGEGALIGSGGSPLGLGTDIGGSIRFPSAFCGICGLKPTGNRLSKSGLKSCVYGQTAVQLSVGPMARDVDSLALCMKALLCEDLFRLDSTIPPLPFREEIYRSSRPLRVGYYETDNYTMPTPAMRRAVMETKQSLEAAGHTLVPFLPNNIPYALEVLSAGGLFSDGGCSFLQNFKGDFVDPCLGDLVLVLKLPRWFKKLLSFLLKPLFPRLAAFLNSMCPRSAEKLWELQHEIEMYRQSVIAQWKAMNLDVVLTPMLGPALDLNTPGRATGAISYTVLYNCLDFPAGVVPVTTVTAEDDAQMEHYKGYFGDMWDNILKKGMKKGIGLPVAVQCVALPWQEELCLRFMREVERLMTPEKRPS
Experimental: as §1
as §2, with “SDS-PAGE. Following gel imaging, serine hydrolase activity was determined by measuring fluorescent intensity of gel bands corresponding to MAGL, ABHD6 and FAAH using ImageJ 1.43u software.” for “SDS-PAGE.”

ABHD6 [3] = target: T3, ABHD6 (Mus musculus (Mouse), UniProt Q8R2Y0); assay: Competitive ABPP, % inhibition at 1 uM, ABHD6
T3 sequence (Q8R2Y0 whole entry): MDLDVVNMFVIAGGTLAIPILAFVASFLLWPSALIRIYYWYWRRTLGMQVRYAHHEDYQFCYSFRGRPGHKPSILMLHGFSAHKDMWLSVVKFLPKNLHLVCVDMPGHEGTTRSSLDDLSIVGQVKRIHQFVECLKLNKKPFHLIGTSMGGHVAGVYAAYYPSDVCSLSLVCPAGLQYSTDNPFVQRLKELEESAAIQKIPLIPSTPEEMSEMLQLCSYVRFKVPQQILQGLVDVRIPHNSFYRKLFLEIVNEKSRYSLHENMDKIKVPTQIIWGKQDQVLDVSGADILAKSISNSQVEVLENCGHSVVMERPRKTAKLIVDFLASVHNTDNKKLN
Experimental: as §1, §2

MAGL [4] = target: T1, MAGL; assay: In vitro competitive activity-based protein profiling (FP-Rh), mouse MAGL; details: mouse brain membrane proteome
Experimental: as §1, §2

FAAH [5] = target: T2, FAAH; assay: In vitro competitive activity-based protein profiling (FP-Rh), mouse FAAH; details: mouse brain membrane proteome
Experimental: as §1, §2

ABHD6 [6] = target: T3, ABHD6; assay: In vitro competitive activity-based protein profiling (FP-Rh), mouse ABHD6; details: mouse brain membrane proteome
Experimental: as §1, §2

T1 sequence (O35678 whole entry): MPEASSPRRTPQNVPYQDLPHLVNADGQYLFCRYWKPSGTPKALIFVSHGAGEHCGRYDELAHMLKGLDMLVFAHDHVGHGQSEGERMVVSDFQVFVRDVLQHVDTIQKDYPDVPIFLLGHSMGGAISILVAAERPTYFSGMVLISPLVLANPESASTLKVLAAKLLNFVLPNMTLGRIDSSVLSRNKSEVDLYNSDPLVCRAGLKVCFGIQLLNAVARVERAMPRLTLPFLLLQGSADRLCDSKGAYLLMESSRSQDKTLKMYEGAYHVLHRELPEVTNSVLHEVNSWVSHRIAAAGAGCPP

| IC50 (MAGL [4]; competitive ABPP (Table 7)) | IC50 (FAAH [5]; competitive ABPP (Table 7)) | IC50 (ABHD6 [6]; competitive ABPP (Table 7)) | SMILES | further results |
| --- | --- | --- | --- | --- |
| < 100 nM | > 10000 nM | 100 to 1000 nM | O=C(OC(C(F)(F)F)C(F)(F)F)N1CCN(Cc2ccc(Cl)cc2-n2cc(Cl)cn2)CC1 [Example 9ai, 1,1,1,3,3,3-hexafluoropropan-2-yl 4-(4-chloro-2-(4-chloro-1H-pyrazol-1-yl)benzyl)piperazine-1-carboxylate] |  |
| 100 to 1000 nM | > 10000 nM | > 1000 nM | O=C(OC(C(F)(F)F)C(F)(F)F)N1CCN(Cc2ccc(N3CCCC3)cc2OC(F)(F)F)CC1 [Example 9ap, 1,1,1,3,3,3-hexafluoropropan-2-yl 4-(4-(pyrrolidin-1-yl)-2-(trifluoromethoxy)benzyl)piperazine-1-carboxylate] |  |
| 100 to 1000 nM | > 10000 nM | > 1000 nM | O=C(OC(C(F)(F)F)C(F)(F)F)N1CCN(Cc2cccc(F)c2N2CCCC2)CC1 [Example 9as, 1,1,1,3,3,3-hexafluoropropan-2-yl 4-(3-fluoro-2-(pyrrolidin-1-yl)benzyl)piperazine-1-carboxylate] |  |
| > 1000 nM | > 10000 nM | > 1000 nM | CC(C)c1cc(N2CCCC2)ccc1CN1CCN(C(=O)OC(C(F)(F)F)C(F)(F)F)CC1 [Example 9au, 1,1,1,3,3,3-hexafluoropropan-2-yl 4-(2-isopropyl-4-(pyrrolidin-1-yl)benzyl)piperazine-1-carboxylate] |  |
| 100 to 1000 nM | > 10000 nM | 100 to 1000 nM | O=C(OC(C(F)(F)F)C(F)(F)F)N1CCN(Cc2ccc(-n3cccn3)c(F)c2)CC1 [Example 9az, 1,1,1,3,3,3-hexafluoropropan-2-yl 4-(3-fluoro-4-(1H-pyrazol-1-yl)benzyl)piperazine-1-carboxylate] |  |
| < 100 nM | > 10000 nM | > 1000 nM | CC(=O)N[C@@H]1CCN(c2cc(Cl)ccc2CN2CCN(C(=O)OC(C(F)(F)F)C(F)(F)F)CC2)C1 [Example 9ba, (R)-1,1,1,3,3,3-hexafluoropropan-2-yl 4-(2-(3-acetamidopyrrolidin-1-yl)-4-chlorobenzyl)piperazine-1-carboxylate] |  |
| 100 to 1000 nM | > 10000 nM | > 1000 nM | O=C(OC(C(F)(F)F)C(F)(F)F)N1CCN(Cc2cccc(Cl)c2C(=O)N2CCCC2)CC1 [Example 9bg, 1,1,1,3,3,3-hexafluoropropan-2-yl 4-(3-chloro-2-(pyrrolidine-1-carbonyl)benzyl)piperazine-1-carboxylate] |  |
| 100 to 1000 nM | > 5000 nM | 100 to 1000 nM | O=C(OC(C(F)(F)F)C(F)(F)F)N1CCN(Cc2ccc(N3CCOCC3)cc2Cl)CC1 [Example 9e, 1,1,1,3,3,3-hexafluoropropan-2-yl 4-(2-chloro-4-morpholinobenzyl)piperazine-1-carboxylate] |  |
| 100 to 1000 nM | > 10000 nM | 100 to 1000 nM | O=C(OC(C(F)(F)F)C(F)(F)F)N1CCN(Cc2ccc(N3CCOCC3)c(Cl)c2)CC1 [Example 9h, 1,1,1,3,3,3-hexafluoropropan-2-yl 4-(3-chloro-4-morpholinobenzyl)piperazine-1-carboxylate] |  |
| 100 to 1000 nM | > 6250 nM | > 1000 nM | Cc1cc(N2CCCC2)ccc1CN1CCN(C(=O)OC(C(F)(F)F)C(F)(F)F)CC1 [Example 9u, 1,1,1,3,3,3-hexafluoropropan-2-yl 4-(2-methyl-4-(pyrrolidin-1-yl)benzyl)piperazine-1-carboxylate] |  |
| < 100 nM | > 6250 nM | 100 to 1000 nM | COc1ccc(CN2CCN(C(=O)OC(C(F)(F)F)C(F)(F)F)CC2)cc1 [Example 9v, 1,1,1,3,3,3-hexafluoropropan-2-yl 4-(4-methoxybenzyl)piperazine-1-carboxylate] |  |
| < 100 nM | > 1250 nM | > 1000 nM | Cc1ccc(CN2CCN(C(=O)OC(C(F)(F)F)C(F)(F)F)CC2)cc1 [Example 9w, 1,1,1,3,3,3-hexafluoropropan-2-yl 4-(4-methylbenzyl)piperazine-1-carboxylate] |  |
| 100 to 1000 nM | > 10000 nM | 100 to 1000 nM | CC(C)n1cc(CN2CCN(C(=O)OC(C(F)(F)F)C(F)(F)F)CC2)c(-c2ccccc2)n1 [Example 10h, 1,1,1,3,3,3-hexafluoropropan-2-yl 4-[[3-phenyl-1-(propan-2-yl)-1H-pyrazol-4-yl]methyl]piperazine-1-carboxylate] |  |
| < 100 nM | > 10000 nM | > 1000 nM | COc1cc(-c2ccccc2)ccc1CN1CCN(C(=O)OC(C(F)(F)F)C(F)(F)F)CC1 [Example 11j, 1,1,1,3,3,3-hexafluoropropan-2-yl 4-[(2-methoxy-4-phenylphenyl)methyl]piperazine-1-carboxylate] |  |
| 100 to 1000 nM | > 10000 nM | > 1000 nM | Cc1cc(-c2ccccc2)ccc1CN1CCN(C(=O)OC(C(F)(F)F)C(F)(F)F)CC1 [Example 11q, 1,1,1,3,3,3-hexafluoropropan-2-yl 4-[(2-methyl-4-phenylphenyl)methyl]piperazine-1-carboxylate] |  |

Continued, compound first:

| SMILES | IC50 (MAGL [4]; competitive ABPP (Table 7)) | IC50 (FAAH [5]; competitive ABPP (Table 7)) | IC50 (ABHD6 [6]; competitive ABPP (Table 7)) | further results |
| --- | --- | --- | --- | --- |
| CC1CN(C(=O)OC(C(F)(F)F)C(F)(F)F)CCN1C(c1ccc(Cl)cc1)c1ccc(Cl)cc1 (stereo not drawn) [Example 2h, 1,1,1,3,3,3-hexafluoropropan-2-yl 4-[bis(4-chlorophenyl)methyl]-3-methylpiperazine-1-carboxylate] |  |  |  | inhibition at 1 µM (MAGL [1]): 25 to 75%; inhibition at 1 µM (FAAH [2]): < 25%; inhibition at 1 µM (ABHD6 [3]): 25 to 75% |
| Cn1ncc2cc(C(c3ccc4c(cnn4C)c3)N3CCN(C(=O)OC(C(F)(F)F)C(F)(F)F)CC3)ccc21 [Example 2k, 1,1,1,3,3,3-hexafluoropropan-2-yl 4-(bis(1-methyl-1H-indazol-5-yl)methyl)piperazine-1-carboxylate] |  |  |  | inhibition at 1 µM (FAAH [2]): < 25% |
| O=C(OC(C(F)(F)F)C(F)(F)F)N1CCN(Cc2c(Cl)cccc2N2CCOCC2)CC1 [Example 9ac, 1,1,1,3,3,3-hexafluoropropan-2-yl 4-[[2-chloro-6-(morpholin-4-yl)phenyl]methyl]piperazine-1-carboxylate] |  |  |  | inhibition at 1 µM (FAAH [2]): < 25% |
| CC(=O)N1CCN(c2cc(Cl)ccc2CN2CCN(C(=O)OC(C(F)(F)F)C(F)(F)F)CC2)CC1 [Example 9aw, 1,1,1,3,3,3-hexafluoropropan-2-yl 4-(2-(4-acetylpiperazin-1-yl)-4-chlorobenzyl)piperazine-1-carboxylate] | 100 to 1000 nM | > 10000 nM | > 1000 nM |  |
| O=C(OC(C(F)(F)F)C(F)(F)F)N1CCN(Cc2ccc(Br)cc2Oc2ccccc2)CC1 [Example 9b, 1,1,1,3,3,3-hexafluoropropan-2-yl 4-(4-bromo-2-phenoxybenzyl)piperazine-1-carboxylate] |  |  |  | IC50 (MAGL [4]; competitive ABPP): < 100 nM; IC50 (FAAH [5]; competitive ABPP): > 10000 nM; IC50 (ABHD6 [6]; competitive ABPP): 100 to 1000 nM |
| CC(=O)N[C@H]1CCN(c2cc(Cl)ccc2CN2CCN(C(=O)OC(C(F)(F)F)C(F)(F)F)CC2)C1 [Example 9bb, (S)-1,1,1,3,3,3-hexafluoropropan-2-yl 4-(2-(3-acetamidopyrrolidin-1-yl)-4-chlorobenzyl)piperazine-1-carboxylate] | < 100 nM | > 10000 nM | > 1000 nM |  |
| O=C(OC(C(F)(F)F)C(F)(F)F)N1CCN(Cc2ccc(C(=O)N3CCC3)cc2Cl)CC1 [Example 9be, 1,1,1,3,3,3-hexafluoropropan-2-yl 4-(4-(azetidine-1-carbonyl)-2-chlorobenzyl)piperazine-1-carboxylate] | 100 to 1000 nM | > 10000 nM | 100 to 1000 nM |  |
| O=C(OC(C(F)(F)F)C(F)(F)F)N1CCN(Cc2ccc(N3CCOCC3)cc2)CC1 [Example 9f, 1,1,1,3,3,3-hexafluoropropan-2-yl 4-(4-morpholinobenzyl)piperazine-1-carboxylate] | 100 to 1000 nM | > 10000 nM | 100 to 1000 nM |  |
| O=C(OC(C(F)(F)F)C(F)(F)F)N1CCN(Cc2ccc(N3CCCC3)cc2)CC1 [Example 9g, 1,1,1,3,3,3-hexafluoropropan-2-yl 4-(4-(pyrrolidin-1-yl)benzyl)piperazine-1-carboxylate] | 100 to 1000 nM | > 10000 nM | > 1000 nM |  |
| O=C(OC(C(F)(F)F)C(F)(F)F)N1CCN(Cc2ccc(Cl)cc2)CC1 [Example 9o, 1,1,1,3,3,3-hexafluoropropan-2-yl 4-(4-chlorobenzyl)piperazine-1-carboxylate] |  |  |  | inhibition at 1 µM (FAAH [2]): < 25% |
| O=C(OC(C(F)(F)F)C(F)(F)F)N1CCN(Cc2ccc(-c3ccccc3)cc2F)CC1 [Example 11p, 1,1,1,3,3,3-hexafluoropropan-2-yl 4-[(2-fluoro-4-phenylphenyl)methyl]piperazine-1-carboxylate] | < 100 nM | > 10000 nM | > 1000 nM |  |
| CN(C)C(=O)c1cc(-c2ccccc2)ccc1CN1CCN(C(=O)OC(C(F)(F)F)C(F)(F)F)CC1 [Example 11x, 1,1,1,3,3,3-hexafluoropropan-2-yl 4-[[2-(dimethylcarbamoyl)-4-phenylphenyl]methyl]piperazine-1-carboxylate] | 100 to 1000 nM | > 10000 nM | > 1000 nM |  |
